{
  "source": "patent US20120172302A1",
  "about": "“COMPOSITION FOR THE TREATMENT OF BENIGN PROSTATE HYPERPLASIA” (priority 2009, published 2012)",
  "type_in_all_cases": "in vivo, men",
  "key": {"[1]": {"system": "patients with BPH", "experiment": "Prostate volume by transrectal ultrasound, clinical trial", "source_text": "(§1) 2] Efficacy Endpoints—the measured Peak Urinary Flow, Post-void Residual Volume, and Prostate Volume.\n(§2) After the initial 6-week treatment period of the exploratory study had been completed, a 12-month follow-up period looking at long-term efficacy commenced. Interim data of the main efficacy variables (IPSS, IPSS Global QoL, prostate volume, urinary flow, and post-void residual volume—measured as set out below) after 6 months' follow-up are also presented herein Table 1, 2, 3 FIG. 1b), together with some IPSS data at 9 and 12 months (FIG. 1b).\nThe prostate volume was measured by transrectal ultrasound with the patient in lateral position. The prostatic gland was sonicated from two directions perpendicular to one another resulting in three cursor positions set by the urologist. The volume was calculated automatically. The investigations were performed by urologists by methods known in the art."}, "[2]": {"system": "patients with BPH", "experiment": "Peak (maximal) urinary flow by flowmetry, clinical trial", "conditions": "for Mean maximal urinary flow: baseline", "experimental": "as §1\nPeak urinary flow was determined by flowmetry using the Uropower device (Wiest, World of Medicine AG, Germany). The device fulfilled the International Continence Society standards for maximum urinary flow. The measurement of urinary flow was done in sitting position.\nThe Qmax is the maximal urinary flow rate. It is the traditional parameter used in BPH trials and is a good indicator of degree of bladder outlet obstruction (BOO)."}, "[3]": {"system": "patients with BPH", "experiment": "International Prostate Symptom Score (IPSS) questionnaire, clinical trial in BPH patients", "conditions": "for Improvements in mean sum of IPSS scores: 9 and 12 months follow-up", "experimental": "For each patient, the following parameters were measured or assessed (using the methods discussed below), at time points of screening (e.g. −7 days) day 0 (“baseline”), day 14, day 28 and day 42:\nas §2\nThe IPSS was developed in 1991 by the American Urological Association to assess the severity of urinary symptoms related to BPH (Barry, M. J., et al., The American Urological Association symptom index for benign prostatic hyperplasia. The Measurement Committee of the American Urological Association. J Urol, 1992. 148(5): p. 1549-57; discussion 1564). It has been widely used in clinical studies, has undergone extensive validation and its psychometric properties are well documented in both the original version (containing a 1-month recall) as well as the ‘acute’ version used in this study (containing a one-week recall). The WHO has recommended the use of this instrument for the evaluation of BPH and it is considered to be the internationally accepted, standard questionnaire for assessing lower urinary tract symptoms.\nThe patients were asked to complete the IPSS questionnaire to evaluate their urinary symptoms. The IPSS is a patient-administered questionnaire containing seven items to evaluate symptoms of urinary obstruction (incomplete emptying, frequency, hesitancy, urgency, weak stream, straining, nocturia) over the preceding week. Each urinary symptom question is assigned points from 0 to 5 indicating increasing severity of the particular symptom. The total score can therefore range from 0 to 35 (0-7: mildly symptomatic; 8-19: moderately symptomatic; 20-35: severely symptomatic). A reduction in score over the treatment is indicative of improvement."}, "[4]": {"conditions": "Month 6 follow-up, 32 mg group, n=7"}, "[5]": {"conditions": "Month 6 follow-up, 64 mg group, n=4"}, "[6]": {"conditions": "Month 6 follow-up, 16+16 mg group, n=6"}, "[7]": {"conditions": "Month 6 follow-up, 32+32 mg group, n=7"}, "[8]": {"conditions": "Day 42, all groups, patients violating the maximal uroflow inclusion criterion excluded"}},
  "note": "Square brackets hold non-standard residues; d marks the D form. Peptide text beside a SMILES is read from it. * marks the point of attachment. dPhe(4-NHCONH2) = NC(=O)Nc1ccc(C[C@@H](N)C(=O)O)cc1; Dihydroorotyl(S) = O=C1C[C@@H](C(=O)*)NC(=O)N1; dPhe(4-Cl) = N[C@H](Cc1ccc(Cl)cc1)C(=O)O; Phe(4-NH2) = Nc1ccc(C[C@H](N)C(=O)O)cc1; d2Nal = N[C@H](Cc1ccc2ccccc2c1)C(=O)O; Lys(iPr) = CC(C)NCCCC[C@H](N)C(=O)O; d3Pal = N[C@H](Cc1cccnc1)C(=O)O",
  "data": [
    {"compound": "CC(=O)N[C@H](Cc1ccc2ccccc2c1)C(=O)N[C@H](Cc1ccc(Cl)cc1)C(=O)N[C@H](Cc1cccnc1)C(=O)N[C@@H](CO)C(=O)N[C@@H](Cc1ccc(NC(=O)[C@@H]2CC(=O)NC(=O)N2)cc1)C(=O)N[C@H](Cc1ccc(NC(N)=O)cc1)C(=O)N[C@@H](CC(C)C)C(=O)N[C@@H](CCCCNC(C)C)C(=O)N1CCC[C@H]1C(=O)N[C@H](C)C(N)=O", "note": "[Degarelix, D-Alaninamide, N-acetyl-3-(2-naphthalenyl)-D-alanyl-4-chloro-D-phenylalanyl-3-(3-pyridinyl)-D-alanyl-L-seryl-4-[[[(4S)-hexahydro-2,6-dioxo-4-pyrimidinyl]carbonyl]amino]-L-phenylalanyl-4-[(aminocarbonyl)amino]-D-phenylalanyl-L leucyl-N6-(1-methylethyl)-L-lysyl-L-prolyl] (Ac-[d2Nal][dPhe(4-Cl)][d3Pal]S[Phe(4-NH2)](Dihydroorotyl(S))[dPhe(4-NHCONH2)]L[Lys(iPr)]P[dA]-NH2)", "values": [
      {"measurement": "Mean (SD) Prostate Volume", "setting": "[1]; Baseline of 6-month follow-up patients, 32 mg group, n=7", "result": "45.9 (n = 7) mL"},
      {"measurement": "Mean (SD) Prostate Volume", "setting": "[1]; Baseline of 6-month follow-up patients, 64 mg group, n=4", "result": "38.7 (n = 4) mL"},
      {"measurement": "Mean (SD) Prostate Volume", "setting": "[1]; Baseline of 6-month follow-up patients, 16+16 mg group, n=6", "result": "40.8 (n = 6) mL"},
      {"measurement": "Mean (SD) Prostate Volume", "setting": "[1]; Baseline of 6-month follow-up patients, 32+32 mg group, n=7", "result": "37.1 (n = 7) mL"},
      {"measurement": "Mean (SD) Prostate Volume", "setting": "[1]; Baseline, 32 mg group, N=12", "result": "48.7 (21.0) mL"},
      {"measurement": "Mean (SD) Prostate Volume", "setting": "[1]; Baseline, 64 mg group, N=13", "result": "38.9 (9.0) mL"},
      {"measurement": "Mean (SD) Prostate Volume", "setting": "[1]; Baseline, 16+16 mg group, N=13", "result": "42.0 (12.1) mL"},
      {"measurement": "Mean (SD) Prostate Volume", "setting": "[1]; Baseline, 32+32 mg group, N=12", "result": "38.1 (7.1) mL"},
      {"measurement": "Prostate Volume Change from Baseline", "setting": "[1]; Day 42, 32 mg group", "result": "−13.9 (14.7) mL"},
      {"measurement": "Prostate Volume Percentage Change from Baseline", "setting": "[1]; Day 42, 32 mg group", "result": "−25.1 (18.0) %"},
      {"measurement": "Prostate Volume Change from Baseline", "setting": "[1]; Day 42, 64 mg group", "result": "−8.2 (10.2) mL"},
      {"measurement": "Prostate Volume Percentage Change from Baseline", "setting": "[1]; Day 42, 64 mg group", "result": "−19.7 (23.2) %"},
      {"measurement": "Prostate Volume Change from Baseline", "setting": "[1]; Day 42, 16+16 mg group", "result": "−7.5 (7.7) mL"},
      {"measurement": "Prostate Volume Percentage Change from Baseline", "setting": "[1]; Day 42, 16+16 mg group", "result": "−17.0 (16.7) %"},
      {"measurement": "Prostate Volume Change from Baseline", "setting": "[1]; Day 42, 32+32 mg group", "result": "−9.4 (9.3) mL"},
      {"measurement": "Prostate Volume Percentage Change from Baseline", "setting": "[1]; Day 42, 32+32 mg group", "result": "−23.5 (20.9) %"},
      {"measurement": "Prostate Volume Change from Baseline", "setting": "[1]; [4]", "result": "−11.6 (5.1) mL"},
      {"measurement": "Prostate Volume Percentage Change from Baseline", "setting": "[1]; [4]", "result": "−25.6 (8.0) %"},
      {"measurement": "Prostate Volume Change from Baseline", "setting": "[1]; [5]", "result": "−9.7 (10.4) mL"},
      {"measurement": "Prostate Volume Percentage Change from Baseline", "setting": "[1]; [5]", "result": "−21.5 (20.6) %"},
      {"measurement": "Prostate Volume Change from Baseline", "setting": "[1]; [6]", "result": "−11.2 (4.4) mL"},
      {"measurement": "Prostate Volume Percentage Change from Baseline", "setting": "[1]; [6]", "result": "−27.8 (8.7) %"},
      {"measurement": "Prostate Volume Change from Baseline", "setting": "[1]; [7]", "result": "−10.6 (8.8) mL"},
      {"measurement": "Prostate Volume Percentage Change from Baseline", "setting": "[1]; [7]", "result": "−27.1 (17.3) %"},
      {"measurement": "Number of patients with maximal urinary flow decreased vs baseline", "setting": "[2]; Day 42, all groups", "result": 25, "unit": "patients"},
      {"measurement": "Number of patients with maximal urinary flow increased vs baseline", "setting": "[2]; Day 42, all groups", "result": 24, "unit": "patients"},
      {"measurement": "Number of patients with maximal urinary flow unchanged vs baseline", "setting": "[2]; Day 42, all groups", "result": 1, "unit": "patient"},
      {"measurement": "Number of patients with decreased uroflow", "setting": "[2]; [8]", "result": 17},
      {"measurement": "Number of patients with increased uroflow", "setting": "[2]; [8]", "result": 20},
      {"measurement": "Mean maximal urinary flow", "setting": "[2]; 32 mg group", "result": 11.7, "unit": "mL/s"},
      {"measurement": "Mean maximal urinary flow", "setting": "[2]; 64 mg group", "result": 9.1, "unit": "mL/s"},
      {"measurement": "Mean maximal urinary flow", "setting": "[2]; 16+16 mg group", "result": 10.0, "unit": "mL/s"},
      {"measurement": "Mean maximal urinary flow", "setting": "[2]; 32+32 mg group", "result": 9.7, "unit": "mL/s"},
      {"measurement": "IPSS Q1 (incomplete emptying), Q2 (frequency), Q4 (urgency) score, change from baseline", "setting": "[3]; 32 mg dose, 28 and 42 day timepoints (FIG. 1c)", "result": "pronounced effect"},
      {"measurement": "Improvements in mean sum of IPSS scores", "setting": "[3]; 32 mg group (FIG. 1b)", "result": "still indicated"},
      {"measurement": "Improvements in mean sum of IPSS scores", "setting": "[3]; 32+32 mg group (FIG. 1b)", "result": "still indicated"},
      {"measurement": "Mean IPSS score", "setting": "[3]; Baseline of 6 month follow up patients, 32 mg group, n=7", "result": "22.0 (n = 7)"},
      {"measurement": "Mean IPSS score", "setting": "[3]; Baseline of 6 month follow up patients, 64 mg group, n=4", "result": "20.0 (n = 4)"},
      {"measurement": "Mean IPSS score", "setting": "[3]; Baseline of 6 month follow up patients, 16+16 mg group, n=6", "result": "18.8 (n = 6)"},
      {"measurement": "Mean IPSS score", "setting": "[3]; Baseline of 6 month follow up patients, 32+32 mg group, n=7", "result": "19.3 (n = 7)"},
      {"measurement": "Mean IPSS score", "setting": "[3]; Baseline, 32 mg group (one s.c. injection Day 0), N=12", "result": "22.3 (6.5)"}
    ]}
  ]
}
